“And” between values parts separate entries of the source, which are not always exact repeats. Equal entries are not always repeated. Structures can show the parent of a compound that is named as a salt. Where two headings read alike, the source gives them in different places.
Assays:
MKN-74 cells [1] = test: apoptosis by QFM, Hoechst-33258 staining; type: cell-based, human
Protocol: Apoptosis was measured by two different methods: (i) Quantitative fluorescent microscopy (QFM) of nuclear changes induced by apoptosis, as determined by bisbenzimide trihydrochloride (Hoescht-33258) staining of nuclear chromatin (15), and (ii) a terminal deoxynucleotidyl transferase (TdT) assay that labels the 3′-OH ends of DNA fragments produced in apoptotic cells (16). […] MMC was diluted in water. A stock safingol solution was constituted in DMSO and was subsequently diluted at least 1:100 in media for all experiments. […] For QFM determinations, the cells were fixed in 3% paraformaldehyde and incubated at room temperature for 10 minutes. The fixative was removed and the cells were washed with 1×PBS, resuspended in 20 μl 1×PBS containing only 8 μg/ml of bisbenzimide trihydrochloride (Hoechst #33258), and incubated at room temperature for 15 minutes. Aliquots of the cells (10 μl) were placed on glass slides coated with 3-amino-propyl-triethoxysilane, and duplicate samples of 500 cells each were counted and scored for the incidence of apoptotic chromatin condensation using an Olympus BH-2 fluorescence microscope equipped with a BH2-DM2U2UV Dich. Mirror Cube filter (Olympus, Lake Success, N.Y.). For the TdT assays, the ApopTag Kit (Oncor, Gaithersburg, Md.) was used. This method employs a fluoresceinated antidigoxigenin antibody directed against nucleotides of digoxigenin-11-dUTP (d-dUTP) which are catalytically added to the 3-ends fragmented DNA by TdT. Briefly, 1–2×10^6 cells were washed and fixed with 1% paraformaldehyde. The fixed cells were incubated in a reaction mixture containing TdT and d-dUTP for 30 minutes at 37° C. Stop/wash buffer was added, and the cells were resuspended in 100 μl of fluorescinated anti-digoxigenin antibody for 30 minutes at room temperature. The cells were then washed with 0.1% Triton X-100 and counterstained with propidium iodide (PI) solution. Green (d-dUTP labeled DNA strand breaks) and red (PI staining for total DNA content) fluorescence of individual cells were measured on a FACScan flow cytometer (Becton Dickinson, San Jose, Calif.). The resulting bivariate plots enabled the detection of apoptotic events within the cell cycle. The R1 cursor was set using the control specimen to define normal levels of green fluorescence (i.e., basal levels of apoptosis). Cells with fluorescence above the R, cursor were considered apoptotic. The data from 10,000 cells were collected and analyzed using CellFit and LYSYS software (Becton Dickinson).
Apoptosis was again measured by QFM staining.
(§1) Induction of apoptosis was estimated by counting the frequency of condensed nuclear chromatin with Hoechst-33258 stain in duplicate samples of 400 cells.
For these studies apoptosis was measured by quantitative fluorescent microscopy (QFM) determination with bisbenzimide trihydrochloride stain (Hoescht-33258) for condensed nuclear chromatin characteristic of apoptotic cells.
For QFM determinations 500 cells were counted and scored for the incidence of apoptotic chromatin changes under an Olympus BH-2 fluorescence microscope in duplicate samples, ±SD, using a BH2-DM2U2UV Dich. Mirror Cube filter.
To study this further applicants elected to examine five bis-indolylmaleimides with various potencies against PKC. […] The induction of apoptosis was estimated by counting the frequency of condensed nuclear chromatin with Hoechst-33258 stain in duplicate samples of 400 cells.

[2] = second phase I trial; cited from earlier work
[3] = cited from earlier work
[4] = dog, in vivo, iv, 2.6 mg/kg; cited from earlier work
[5] = Fischer 344 rats, cited from earlier work
OV432 = test: trypan blue exclusion and alamar blue assays; type: cell-based; details: FLAVO 24 hours
Description: (§2) Over-expression of bcl-2 has been associated with resistance to chemotherapy and inhibition of apoptosis.

183CLL = test: trypan blue exclusion and alamar blue assays; type: cell-based; details: FLAVO 24 hours
Description: as §2

MKN-74 cells [6] = test: trypan blue exclusion and alamar blue assays; type: cell-based; details: Homo sapiens, FLAVO 24 hours
Description: as §2

[7] = system: PC-3 prostate cancer cells; details: cited from earlier work
[8] = molecular target: cyclic-adenosine monophosphate-dependent protein kinase A; details: flavopiridol; read-out: IC50, cyclic AMP-dependent protein kinase; cited from earlier work
[9] = system: PKC obtained from MKN-74 gastric cancer cells; test: PKC purified from MKN-74 cells, phosphorylation of myelin basic protein; type: biochemical, human; details: for PKC activity: no drug 25,000
Description: For these experiments MKN-74 cells were homogenized and PKC was purified on a DEAE cellulose column as described (37). […] A control sample was also run with the PKC pseudosubstrate, which functions as an established PKC inhibitor. The results, as shown in the table below, are expressed as the absolute counts of [^32P]ATP incorporated into myelin basic protein/minute of assay time: […]

SUDHL-4 lymphoma cells = details: cited from earlier work
[10] = system: MDA-MB-468 breast cancer cells; test: apoptosis by QFM, Hoechst-33258 staining; type: cell-based, human; details: MDA-MB-468; flavopiridol, MMC
Protocol: PRELIMINARY STUDIES. […] Apoptosis was measured by quantitative fluorescent microscopy (QFM) of nuclear changes induced by apoptosis, as determined by bisbenzimide trihydrochloride (Hoescht-33258) staining of condensed nuclear chromatin (24). For the QFM duplicate samples of 500 cells each were counted and scored for the incidence of apoptotic chromatin condensation using an Olympus BH-2 fluorescence microscope.
Applicants also tested the PKC inhibitor UCN-01 (27) which is currently in phase I clinical trial at the NCI. In contrast to safingol, which inhibits PKC by binding to its regulatory domain, UCN-01 inhibits PKC at its catalytic domain. Therefore, assessment of the effect of UCN-01 on inducing apoptosis in combination with MMC on MDA-MB-468 was also performed. The QFM method to quantitate apoptosis was again used. The conditions tested were identical to those described above for safingol except UCN-01 (1 μM) was substituted for safingol in all the conditions.
as §1

bcl-2 in OV432 cells = test: bcl-2 expression by Western immunoblotting; type: cell-based; details: FLAVO concentrations as low as 50 nM
Description: as §2

MDA-MB-468 cells = details: cited from earlier work
bcl-2 in MKN-74 cells = test: bcl-2 expression by Western immunoblotting; type: cell-based, human; details: 300 nM of FLAVO; co-treatment with MMC 50 μM
Description: as §2

PKC = details: flavopiridol; read-out: IC50, PKC enzyme activity; cited from earlier work
[11] = system: A549, HCT 8, T986, MCF-7 and HL-60 human cancer cell lines; details: cited from earlier work

Which “Percent Apoptosis” value (MKN-74 cells [1]; 24 h continuous (single drug) or concomitant, flavopiridol 300 nM, MMC 1 μg/ml, paclitaxel 50 μM, carboplatin, hydrochloride) does the source give for CN1CC[C@H](c2c(O)cc(O)c3c(=O)cc(-c4ccccc4Cl)oc23)[C@H](O)C1 (relative stereo) [flavopiridol, 2-(2-chlorophenyl)-5,7-dihydroxy-8-(cis-3-hydroxy-1-methyl-4-piperidinyl)-4H-1-benzopyran-4-one, hydrochloride] here?
Its value is 12%±1% and 11.6%±1%.

And the “% APOPTOSIS” value (MKN-74 cells [1]; 24 hours, FLAVO 300 nM, Taxol 50 μM, MMC 1 μg/ml, single drugs or in combination)?
Its value is 17%.

What about the “percent induction of apoptosis, Concomitant” value (MKN-74 cells [1]; 24 hours, FLAVO 300 nM, Taxol 50 μM, MMC 1 μg/ml, single drugs or together) of the same molecule?
The value was 17% ± 2%.

What about the “induction of apoptosis (QFM)” value (MKN-74 cells [1]; FIG. 7, 24 hours, flavopiridol 300 nM, MMC 50 μM (as printed b127)) of the same molecule?
Its value is 17%±2%.

What about the “induction of apoptosis (condensed chromatin, 400 cells)” value (MKN-74 cells [1]; MKN-74, 24 hours, Flavo 300 nM, MMC 5 μg/ml) of the same molecule?
Its value is 17% ± 2.

What about the t1/2 [2] of the same molecule?
Its t1/2 is 14 h.

What about the MTD ([3]; one phase I study, 72 hour infusion every 2 weeks) of the same molecule?
The MTD was 50 mg/m^2/day.

What about the MTD ([3]; the other phase I trial) of the same molecule?
Its MTD is 56 mg/m^2/day.

And the tolerability [4]?
The tolerability was “tolerated without evidence of significant toxicity”.

What about the “Maximal plasma drug concentration (Cmax)” value [5] of the same molecule?
The value was 9500 ng/mL.

What about the Plasma clearance [5] of the same molecule?
Its Plasma clearance is 58 mL/min/kg.

And the “elimination half-life (T1/2)” value [5]?
The value was 1.87 h.

And the Cmax ([5]; read-out: Maximal plasma drug concentration (Cmax))?
Its Cmax is 21.7 µM.

What about the IC50 (OV432) of the same molecule?
The IC50 was 0.1 µM.

And the IC50 (183CLL)?
The IC50 was 0.4 µM.

What about the IC50 (MKN-74 cells [6]) of the same molecule?
The IC50 was greater than 0.8 µM.

And the “concentration required to produce a similar effect (apoptosis)” value [7]?
Its value is “at least 1000 nM”.

What about the IC50 [8] of the same molecule?
The IC50 was 145 µM.

What about the “Percent inhibition of PKC activity” value ([9]; Flavopiridol 34 nM) of the same molecule?
Its value is 84%.

And the PKC activity ([9]; Flavopiridol 34 nM)?
The PKC activity was 4,000 counts of [^32P]ATP incorporated into myelin basic protein/minute.

What about the “Percent inhibition of PKC activity” value ([9]; Flavopiridol 340 nM) of the same molecule?
Its value is 87%.

What about the PKC activity ([9]; Flavopiridol 340 nM) of the same molecule?
Its PKC activity is 3,300 counts of [^32P]ATP incorporated into myelin basic protein/minute.

And the concentration inducing apoptosis (SUDHL-4 lymphoma cells)?
Its concentration inducing apoptosis is 100 nM.

What about the “percentage of cells undergoing apoptosis” value [10] of the same molecule?
The value was 29%±2%.

What about the bcl-2 expression (bcl-2 in OV432 cells) of the same molecule?
The bcl-2 expression was “complete loss of bcl-2”.

And the cytotoxicity (MDA-MB-468 cells; exposure for 24 hours)?
The cytotoxicity was “essentially no cytotoxicity”.

What about the cell proliferation (MDA-MB-468 cells; prolonged exposure for 72 hours) of the same molecule?
The cell proliferation was “inhibits cell proliferation”.

And the bcl-2 expression (bcl-2 in MKN-74 cells)?
Its bcl-2 expression is “failed to induce any decrease in bcl-2”.

What about the IC50 (PKC) of the same molecule?
The IC50 was 6 µM.

What about the “concentration range inhibiting colony formation” value [11] of the same molecule?
Its value is 250 to 300 nM.
